Assay results reported in patent US20240316059A1, “PEPTIDE DRUG CONJUGATES” (Oncopeptides AB, priority 2021, published 2024).
Read-outs that look alike come from different tables or passages of the source.

Assays:
MM.1S cells [1] = assay: In vitro cytotoxic potency in MM.1S cell viability assay (CellTiter-Glo); assay type: cell-based, human; conditions: Homo sapiens, MM1.S, 72 h
Summary of the method: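 Log-phase MM.1S cells in supplemented RPMI 1640 were seeded at 100000 cells/mL with compound (0.2% DMSO final). After 72 h at 37 °C in CO2, viability was measured by CellTiter-Glo 2.0 luminescence.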

THP-1 = assay: In vitro cytotoxicity, THP-1 (Acute Myeloid Leukemia); assay type: cell-based; conditions: Homo sapiens, THP-1, 72 h, read-out: Cytotoxicity IC50, THP-1
Method: (§1) All cells were cultivated in RPMI medium 1640 (IX). All media was supplemented with 10 μg/μl penicillin/streptomycin, 10% heat inactivated FBS, 0.1 mM Sodium Pyruvate, 1×MEM NEAA (ThermoFisher) and 1 mM HEPES. The DERL-2 cells had higher FBS (20%) and 40 ng/mL IL-2 was added. hPBMCs were thawed and allowed to acclimatise overnight and then stimulated with 10 μg/mL PHA-M and 40 ng/mL IL-2 for 4 hours before being exposed to test compounds. All cells, except for hPBMCs, were grown to reach log phase before being exposed to the test compounds.
(§2) Test compounds were dissolved in 100% DMSO and added to a 384 assay plate. Additional DMSO was added to maintain the same final DMSO concentration (0.2%) in all wells. 25 μL cell suspension with a concentration of 100000 cells/mL was added to each well. The cells were cultured in a CO2 incubator at 37° C. for 72 h. Plates were equilibrated to room temperature for 30 minutes before adding 20 μL CellTiter-Glo® 2.0 (Promega) reagent to all wells. The plate was then allowed to stabilize for 20 minutes before recording the luminescence (Em filter 700 nm) in an Envision plate reader.

MM.1S cells [2] = assay: DNA fragmentation, APO-BrdU TUNEL assay by flow cytometry; assay type: cell-based, human; conditions: 24 h; for Cells with DNA breaks (TUNEL positive cells): 0.6 μM; for Dose response effect on DNA damage (TUNEL): 0.006, 0.06, 0.6 or 6 μM
Method: Method: 1×10^6 MM.1S cells (CRL-2974, ATCC) were treated with Example compound 1 or Bendamustine at 0.006, 0.06, 0.6 or 6 μM for 24 h. After incubation, the cells were washed with PBS (10010-015, Gibco), fixed in Flow Cytometry Fixation Buffer (FC004, R&D Systems) for 10 min and stored in 70% ethanol at −20° C. overnight. The deoxythymidine analog (BrdUTP) was present in the experiment and served to label the DNA break sites. Next day, the cells were washed and stained using an APO-BrdU™ TUNEL Assay Kit, according to the manufacturer's protocol (A23210, Invitrogen), followed by the analysis using BD FACSCanto™ II. The percentage of TUNEL positive cells indicates the percentage of cells with fragmented DNA.

EJM = assay: In vitro cytotoxicity, EJM (Multiple Myeloma); assay type: cell-based; conditions: Homo sapiens, 72 h, read-out: Cytotoxicity IC50, EJM
Method: as §1, §2

AMO-1 = assay: In vitro cytotoxicity, AMO-1 (Multiple Myeloma); assay type: cell-based; conditions: Homo sapiens, AMO1, 72 h, read-out: Cytotoxicity IC50, AMO-1
Method: as §1, §2

DOHH-2 = assay: In vitro cytotoxicity, DOHH-2 (B Cell Lymphoma); assay type: cell-based; conditions: Homo sapiens, DOHH-2, 72 h, read-out: Cytotoxicity IC50, DOHH-2
Method: as §1, §2

SC-1 = assay: In vitro cytotoxicity, SC-1 (B cell Lymphoma); assay type: cell-based; conditions: Homo sapiens, SC-1, 72 h, read-out: Cytotoxicity IC50, SC-1
Summary of the method: (§3)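 Viability is measured by ATP-based luminescence (CellTiter-Glo 2.0) following a 72 h incubation at 37 °C. Cells grow in RPMI 1640 with 10% heat-inactivated FBS; DERL-2 receives 20% FBS and 40 ng/mL IL-2. DMSO is held at 0.2% final.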

[3] = system: SU-DHL-4 human lymphoma cell line; assay: In ovo chicken embryo xenograft model, tumour weight; assay type: in vivo; conditions: 100 μL injected day 11, 13, 15, 17, tumours weighed day 18
Method: Methods: Inoculation of Fertilized White Leghorn eggs was performed with 3×10^6 SU-DHL-4 tumour cells on day 9 (post-fertilisation). Viable eggs were injected with 100 μL of either Example compound 1 (8.4 uM (0.008 mg/kg), 33.5 uM (0.033 mg/kg), 167.5 uM (0.164 mg/kg)), bendamustine (8.4 uM (0.005 mg/kg), 33.5 uM (0.02 mg/kg), 167.5 uM (0.1 mg/kg)) or vehicle on day 11, 13, 15 and 17. On day 18, tumours were removed and weighed.

RPMI-8226 = assay: In vitro cytotoxicity, RPMI-8226 (Multiple Myeloma, resistant); assay type: cell-based; conditions: Homo sapiens, RPMI-8226, 72 h, read-out: Cytotoxicity IC50, RPMI-8226
Summary of the method: as §3

U266 = assay: In vitro cytotoxicity, U266 (Multiple Myeloma); assay type: cell-based; conditions: Homo sapiens, U-266, 72 h, read-out: Cytotoxicity IC50, U266
Method: as §1, §2

SUP-T1 = assay: In vitro cytotoxicity, SUP-T1 (T cell Lymphoma); assay type: cell-based; conditions: Homo sapiens, SUP-T1, 72 h, read-out: Cytotoxicity IC50, SUP-T1
Method: as §1, §2

DERL-2 = assay: In vitro cytotoxicity, DERL-2 (T cell Lymphoma); assay type: cell-based; conditions: Homo sapiens, 72 h, read-out: Cytotoxicity IC50, DERL-2
Method: as §1, §2

[4] = read-out: Cytotoxicity IC50, MM.1S

| SMILES | IC50 (MM.1S cells [1]; [4]) [µM] | IC50 (MM.1S cells [1]; read-out: MM.1S IC50) [µM] | IC50 (THP-1) [µM] | Cells with DNA breaks (TUNEL positive cells) (MM.1S cells [2]) | Dose response effect on DNA damage (TUNEL) (MM.1S cells [2]) | IC50 (EJM) [µM] | IC50 (AMO-1) [µM] | IC50 (DOHH-2) [µM] | IC50 (SC-1) [µM] | Tumour reduction compared to vehicle ([3]; 33.5 μM) [%] | Tumour reduction compared to vehicle ([3]; 167.5 μM) [%] | IC50 (RPMI-8226) [µM] | IC50 (U266) [µM] | IC50 (SUP-T1) [µM] | IC50 (DERL-2) [µM] | Tumour reduction compared to vehicle ([3]; 8.4 μM) [%] |
| --- | --- | --- | --- | --- | --- | --- | --- | --- | --- | --- | --- | --- | --- | --- | --- | --- |
| Cn1c(CCCC(=O)O)nc2cc(N(CCCl)CCCl)ccc21 [Bendamustine, bendamustine, reference compound] | 24 | 24 | 40.2 | that was not the case | no obvious effect | 64.6 | 57 | 10.7 | 25.1 | 30 | 76 | 111 | 83 | 33.5 | 21.1 |  |
| CCOC(=O)[C@H](CC(C)C)NC(=O)[C@@H](N)CCc1nc2cc(N(CCCl)CCCl)ccc2n1C [Example 1, Ethyl (2S)-2-[[(2S)-2-amino-4-[5-[bis(2-chloroethyl)amino]-1-methyl-benzimidazol-2-yl]butanoyl]amino]-4-methyl-pentanoate] | 0.0068 | 0.0068 | 0.016 | > 90% | induced DNA damage in a dose-dependent manner | 0.0271 | 0.0497 | 0.0042 | 0.0133 | 70 | 82 | 0.0906 | 0.0214 | 0.0127 | 0.006 | 38 |
